ChEMBL document CHEMBL4400510, “Synthesis and antitubercular evaluation of reduced lipophilic imidazo[1,2-a]pyridine-3-carboxamide derivatives” (Eur J Med Chem, 2019)
In brackets after ≈: the same amount, converted by molar mass.

Legend:
[1] = system: Mycobacterium tuberculosis; assay: Antitubercular activity against Mycobacterium tuberculosis H37Rv after 7 days by MABA method; format: functional; details: 168 h
[2] = Aqueous solubility of the compound in 0.01 M HCl at pH 2 after 12 hrs by UV-based HPLC analysis; format: physicochemical
[3] = Half life in ICR mouse at 25 mg/kg, po by HPLC analysis; format: ADME, organism-based; details: in vivo
[4] = Cmax in ICR mouse at 25 mg/kg, po by HPLC analysis; format: ADME, organism-based; parameters: dose 25 mg/kg, route oral; details: in vivo
[5] = Tmax in ICR mouse at 25 mg/kg, po by HPLC analysis; format: ADME, organism-based; details: in vivo
[6] = Cytotoxicity against African green monkey Vero cells measured after 72 hrs by MTT assay; format: cell-based; details: chlorocebus sabaeus
[7] = AUC (0 to infinity) in ICR mouse at 25 mg/kg, po by HPLC analysis; format: ADME, organism-based; parameters: dose 25 mg/kg, route oral, time infinity; details: in vivo

## CCc1nc2ccc(Cl)cn2c1C(=O)NCc1ccc(N2CCN(Cc3ccc(OC(F)(F)F)cc3)CC2)cc1
[1]
  MIC90: < 0.035 µM

## CCc1nc2ccc(Cl)cn2c1C(=O)NCc1ccc(N2CC3CN(CC4CCCCC4)CC3C2)cc1 (configuration not stated)
[2]
  solubility at 12 h: 628 µg/mL (≈ 1210 µM)
[3]
  half-life: 4.27 h
[4]
  Cmax: 4180 ng/mL
[5]
  Tmax: 0.25 h
[1]
  MIC90: < 0.035 µM
[6]
  CC50 at 72 h: > 100 µM
[7]
  AUC(0-inf): 9050 ng·h/mL

## CCc1nc2ccc(Cl)cn2c1C(=O)NCc1ccc(N2CC3CN(c4ccc(OC(F)(F)F)cc4)CC3C2)cc1 (configuration not stated)
[1]
  MIC90: 0.058 µM (≈ 0.0339 µg/mL)

## CCc1nc2ccc(Cl)cn2c1C(=O)NCc1ccc(N2CC3CN(Cc4ccc(OC(F)(F)F)cc4)CC3C2)cc1 (configuration not stated)
[2]
  solubility at 12 h: 1130 µg/mL (≈ 1880 µM)
[3]
  half-life: 5.23 h
[4]
  Cmax: 2670 ng/mL
[5]
  Tmax: 0.83 h
[1]
  MIC90: < 0.035 µM
[6]
  CC50 at 72 h: 20.5 µM
[7]
  AUC(0-inf): 19800 ng·h/mL

## CCc1nc2ccc(Cl)cn2c1C(=O)NCc1ccc(N2CCC3(CC2)CCN(c2ccc(OC(F)(F)F)cc2)CC3)cc1
[2]
  solubility at 12 h: 1110 µg/mL (≈ 1770 µM)
[3]
  half-life: 12.3 h
[4]
  Cmax: 7420 ng/mL
[5]
  Tmax: 2.67 h
[1]
  MIC90: < 0.035 µM
[6]
  CC50 at 72 h: 70.2 µM
[7]
  AUC(0-inf): 153000 ng·h/mL

## CCc1nc2ccc(Cl)cn2c1C(=O)NCc1ccc(N2CC3CCC2CN3CC2CCCCC2)cc1 (configuration not stated)
[1]
  MIC90: 0.062 µM (≈ 0.0322 µg/mL)

## CCc1nc2ccc(Cl)cn2c1C(=O)NCc1ccc(N2CCN(CCC3CCCCC3)CC2)cc1
[1]
  MIC90: 0.103 µM (≈ 0.0523 µg/mL)

## CCc1nc2ccc(Cl)cn2c1C(=O)NCc1ccc(N2CCN(CC3CCCCC3)CC2)cc1
[2]
  solubility at 12 h: 1230 µg/mL (≈ 2500 µM)
[3]
  half-life: 2.75 h
[4]
  Cmax: 24100 ng/mL
[5]
  Tmax: 0.25 h
[1]
  MIC90: < 0.035 µM
[6]
  CC50 at 72 h: 53.5 µM
[7]
  AUC(0-inf): 53800 ng·h/mL

## CCc1nc2cc(Cl)ccn2c1C(=O)NCc1ccc(N2CC3CC2CN3CC2CCCCC2)cc1 (configuration not stated)
[1]
  MIC90: 1.27 µM (≈ 0.641 µg/mL)

## CCc1nc2cc(Cl)ccn2c1C(=O)NCc1ccc(N2CC3CCC2CN3CC2CCCCC2)cc1 (configuration not stated)
[1]
  MIC90: 1.48 µM (≈ 0.769 µg/mL)

## CCc1nc2cc(Cl)ccn2c1C(=O)NCc1ccc(N2CCN(CCC3CCCCC3)CC2)cc1
[1]
  MIC90: 1.59 µM (≈ 0.81 µg/mL)

## CCc1nc2cc(Cl)ccn2c1C(=O)NCc1ccc(N2CCN(CC3CCCCC3)CC2)cc1
[1]
  MIC90: 0.84 µM (≈ 0.415 µg/mL)

## CCc1nc2ccc(Cl)cn2c1C(=O)NCc1ccc(N2CC3CC2CN3CC2CCCCC2)cc1 (configuration not stated)
[1]
  MIC90: 0.452 µM (≈ 0.229 µg/mL)

## NNC(=O)c1ccncc1 [ISONIAZID]
[1]
  MIC90: 0.277 µM (≈ 0.038 µg/mL)

## O=c1nc(N2CCN(CC3CCCCC3)CC2)sc2c([N+](=O)[O-])cc(C(F)(F)F)cc12 [MACOZINONE]
[1]
  MIC90: < 0.035 µM

## CO[C@H]1/C=C/O[C@@]2(C)Oc3c(C)c(O)c4c(O)c(c(/C=N/N5CCN(C)CC5)c(O)c4c3C2=O)NC(=O)/C(C)=C\C=C\[C@H](C)[C@H](O)[C@@H](C)[C@@H](O)[C@@H](C)[C@H](OC(C)=O)[C@@H]1C [RIFAMPIN]
[1]
  MIC90: 0.038 µM (≈ 0.0313 µg/mL)

## CCc1nc2ccc(Cl)cn2c1C(=O)NCc1ccc(N2CCC(c3ccc(OC(F)(F)F)cc3)CC2)cc1 [TELACEBEC]
[1]
  MIC90: < 0.035 µM
[6]
  CC50 at 72 h: > 100 µM
